Key:
Assay type in all cases: biochemical
rhNaglu [1] = target: T1, rhNaglu (Homo sapiens, UniProt P54802); experiment: Naglu activity assay with various inhibitors (4MU-GlcNAc fluorescent substrate); conditions: added at 0.0625, 0.25, 1, 4 and 8 mM; 37° C., 1 hour, pH 4.5
T1 construct: The N-terminal 23 amino acids are cleaved as the precursor protein enters the endoplasmic reticulum, resulting in a mature form; made in house; host or cells: human fibrosarcoma HT1080 cell clone over-expressing rhNaglu
T1 sequence (P54802 24-743): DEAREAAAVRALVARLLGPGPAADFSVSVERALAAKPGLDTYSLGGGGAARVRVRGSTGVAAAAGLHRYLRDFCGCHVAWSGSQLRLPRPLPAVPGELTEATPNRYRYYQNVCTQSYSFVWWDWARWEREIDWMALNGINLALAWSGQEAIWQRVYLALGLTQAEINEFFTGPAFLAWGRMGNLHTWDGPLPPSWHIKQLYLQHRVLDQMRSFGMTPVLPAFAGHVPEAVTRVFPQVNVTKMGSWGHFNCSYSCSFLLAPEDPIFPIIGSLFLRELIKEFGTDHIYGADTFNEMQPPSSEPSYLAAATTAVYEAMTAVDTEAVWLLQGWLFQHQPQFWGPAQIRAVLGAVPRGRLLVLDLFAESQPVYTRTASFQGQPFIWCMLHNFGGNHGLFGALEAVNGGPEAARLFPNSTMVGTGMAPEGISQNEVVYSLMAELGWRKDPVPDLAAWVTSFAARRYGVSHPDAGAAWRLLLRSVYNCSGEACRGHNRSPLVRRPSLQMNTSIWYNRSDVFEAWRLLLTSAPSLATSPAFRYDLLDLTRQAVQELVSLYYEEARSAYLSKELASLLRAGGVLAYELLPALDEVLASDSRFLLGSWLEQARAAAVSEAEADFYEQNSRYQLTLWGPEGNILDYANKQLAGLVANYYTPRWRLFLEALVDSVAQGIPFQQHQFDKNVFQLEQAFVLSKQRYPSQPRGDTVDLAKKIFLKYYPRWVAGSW
Description: A 10 mM stock of Naglu activity substrate solution was prepared by dissolving 5 mg of substrate, i.e., 4-methylumbelliferyl-N-acetyl-α-D-glucosaminide, in 250 μl of 100% DMSO. Naglu activity assay reaction buffer (0.1 M sodium acetate, 0.5 mg/ml BSA, pH 4.5) was then added to bring the volume up to 1318 μl. This 10 mM substrate stock solution was then diluted 10 fold with reaction buffer to make the final 1 mM substrate solution.
Samples and controls were pre-diluted in reaction buffer. 10 μl of each pre-diluted sample/control were applied in duplicate wells on a black clear bottom 96 well plate. 75 μl of 1 mM substrate solution containing various concentrations of inhibitors were added to each well. The plates were sealed with plate sealer and wrapped with aluminum foil. The plates were then placed in a Boekel Jitterbug Microplate Incubator Shaker (Cole-Parmer, Vernon Hills, Ill.) and shaken (setting at #1) at 37° C. for 1 hour. 200 μl of Stop Buffer (0.2 M Glycine, pH 10.7) were then added to all of the wells and fluorescence emission (excitation/emission at 360 nm/460 nm, respectively) was measured using a SpectraMax® Plus M2 plate reader from Molecular Devices (Sunnyvale, Calif.).
To further confirm that rhNaglu could hydrolyze UDP-GlcNAc, we investigated whether UDP-GlcNAc inhibited the hydrolysis by rhNaglu of the fluorescent substrate 4MU-GlcNAc (4-methylumbelliferyl-N-acetyl-α-D-glucosaminide) in a Naglu activity assay. Briefly, UDP-GlcNAc, as well as GlcNAc, UDP-GalNAc and Glucosamine, were added to the Naglu activity assay at 0.0625, 0.25, 1, 4 and 8 mM concentrations. The fluorescence emitted from these samples was compared to control samples only including rhNaglu and 4MU-GlcNAc.

rhNaglu [2] = target: T1, rhNaglu; experiment: Naglu substrate analysis: hydrolysis of UDP-sugars by rhNaglu, PAD-HPLC; conditions: 0.8 mM UDP-sugar, rhNaglu 2.6 to 2,000 μg/ml, Tris pH 7.15, 37° C., 1 hour
Description: Recombinant human Naglu was co-incubated with uridine diphosphate N-acetylglucosamine (UDP-GlcNAc) or uridine diphosphate N-acetyl galactosamine (UDP-GalNAc). UDP-GlcNAc, GlcNAc (N-acetylglucosamine) and UDP-GalNAc were detected using PAD-HPLC (Pulsed Amperometric Detection-High Pressure Liquid Chromatography) that was modified after Chavaroche et al. 2011.
Recombinant human Naglu was dialyzed into Tris buffer (40 mM Tris pH 7.15, 100 mM NaCl, 4 mM MgCl2, and 4 mM MnCl2) and concentrated with VivaSpin® sample concentrators having a 30 kDa cut-off (Viva Products, Inc., Littleton, Mass.). […]
Samples were then subjected to centrifugation at 10,000 rpm, and the resulting supernatants were loaded on PA10 columns and detected by PAD-HPLC (Pulsed Amperometric Detection-High Pressure Liquid Chromatography) (Dionex ICS-3000 Ion Chromatography System (Thermo Fisher Scientific, Inc., Sunnyvale, Calif.)). […] The peak areas for the eluted UDP-GlcNAc were measured, and the reductions of the area under the curve (AUC) in response to increased concentrations of rhNaglu were determined (FIG. 1A). A new peak at 10.7 minutes was detected on the chromatograms of samples treated with concentrations of rhNaglu of 23.4 μg/ml and above. […] The peak areas for the eluted GlcNAc were measured, and the increases of the AUC in response to increased concentrations of rhNaglu were determined (FIG. 1B). […]

rhNaglu [3] = target: T1, rhNaglu; experiment: Isothermal titration calorimetry (ITC) of UDP-GlcNAc hydrolysis by rhNaglu; conditions: preliminary ITC data
From the text: The reduction of the UDP-GlcNAc substrate in the samples containing rhNaglu (FIG. 3A) and the formation of the reaction product GlcNAc in the samples containing rhNaglu (FIG. 3B) was apparent. The reductions of UDP-GlcNAc and the formation of GlcNAc were dependent on the initial concentration of UDP-GlcNAc in the reaction sample.

Substance: uridine diphosphate N-acetylglucosamine [UDP-GlcNAc]
- inhibition of rhNaglu activity toward 4MU-GlcNAc (rhNaglu [1]): Inhibition
- hydrolysis by rhNaglu (rhNaglu [2]): hydrolyses
- Km of hydrolysis by rhNaglu (rhNaglu [3]): milimolar range
